Source: patent publication US20080033046A1, “Treatment of myocardial infarction with 11HSD1 inhibitors” (University of Edinburgh, priority 2004, published 2008)
“Also recorded” adds a separate entry of the source. One block for each compound: values may come before it.

Assays:
mouse aortic rings [1] = assay: Angiogenesis in mouse aortic rings embedded in Matrigel (new vessel count); format: cell-based; details: for effect on the angiostatic effect of corticosterone / direct effect on angiogenesis in aortic rings (drug alone): drug 10^−6 M; for effect on the angiostatic effect of corticosterone: corticosterone 600 nM; for direct effect on angiogenesis in aortic rings (drug alone): no glucocorticoid
Method: Mice were killed humanely and thoracic aortae were removed, washed in serum free MCDB 131 medium (Invitrogen, UK), cleaned of periadventitial tissue and divided into 1-3 mm rings.
To quantify angiogenesis aortic rings were embedded in 200 μl of steroid free Matrigel (Becton Dickinson, UK) and incubated at 37° C. in serum free MCDB 131, with heparin, ascorbic acid, and GA1000 (Cambrex Biosciences, UK) in the presence and absence of: corticosterone (3 nM, 30 nM, 300 nM, 600 nM); 11-dehydrocorticosterone (300 nM, 60 nM); the glucocorticoid receptor antagonist, RU38486 (10^−6M)^59, the mineralocorticoid receptor antagonist, spironolactone (10^−6 M)^60; and/or the […] 11βHSD inhibitor, carbenoxolone (10^−4-10^−6M)^31. All drugs (Sigma-Aldrich, UK) were dissolved in ethanol and diluted in aqueous solution; final ethanol concentration 1-3% v/v. Media were changed every 48 hours. Experiments were performed in triplicate. In initial experiments, new vessels were counted daily using light microscopy (FIG. 1). From these studies day 7 was selected as the appropriate time point to examine the effects of glucocorticoids (FIG. 1c).
To confirm the nature of apparent new vessels, endothelial cells were identified by uptake of fluorescent-labelled acetylated low-density lipoprotein (DiI-Ac-LDL)(Biogenesis, Dorset UK) FIG. 1b).

mouse aortic rings [2] = assay: as above; format: cell-based; details: wild type rings, drug 10^−6 M, 11-dehydrocorticosterone 600 nM
[3] = tested on: subcutaneous sponge implants in mice; assay: Subcutaneous sponge implant assay (vessel density, Chalkley counts); format: in vivo, mouse; details: 20 days; for effect of steroid-impregnated sponge on angiogenesis in vivo: 2 mg steroid in silastic insert
Method: (§1) Mice were anaesthetized with halothane and a sterilised sponge cylinder (0.5 cm×1 cm) (Caligen-Foam Ltd., UK) was implanted subcutaneously on each flank. Sponges contained a silastic insert (Silastic 20 medical grade, Dow Corning Corporation, USA) impregnated with vehicle, 2 mg of cortisol or cortisone, or 5 mg of RU38486. […] Such inserts release their impregnated compounds in vivo at a constant rate for 3 weeks. Human steroids (cortisol and cortisone, equivalent to corticosterone and 11-dehydrocorticosterone) were used to allow distinction from endogenous steroids. In separate experiments (not shown) angiogenesis in placebo-impregnated sponges was not altered by the presence or absence of a contralateral steroid-treated sponge.
(§2) Twenty days following implantation, mice were decapitated, sponges excised and inserts removed. Sponges were bisected; one half was fixed in 10% formalin and embedded in paraffin wax. Sections (8 μm) were stained with haematoxylin and eosin (H&E). The second half of the sponge was weighed, homogenised in 2 ml sterile phosphate buffered saline at 4° C. and centrifuged (2000 g; 30 minutes). Steroids were extracted from the supernatant using ethyl acetate and cortisol quantified using a specific radioimmunoassay (Amersham Pharmacia Biotech, UK). Sponge vessel density was determined by using the mean of triplicate Chalkley counts on 2 sections per sponge.

in vivo = details: mouse; for concentration at 20 days: Cortisol level
Method: as §1, §2

[4] = aortic rings from 11βHSD-1 −/− mice, glucocorticoid 600 nM, compared with wild type
[5] = wild type C57B16 aortic rings, 7-day incubation, physiological concentrations (up to 600 nM)
[6] = wild type rings, listed as Carbenoxolone

SMILES: C[C@]12CC(=O)[C@H]3[C@@H](CCC4=CC(=O)CC[C@@]43C)[C@@H]1CC[C@@H]2C(=O)CO [11-dehydrocorticosterone]
effect of glucocorticoid on angiogenesis in aortic rings (mouse aortic rings [1]; [4]): did not inhibit angiogenesis
effect of glucocorticoid on angiogenesis in aortic rings (mouse aortic rings [1]; [5]): inhibited angiogenesis; also recorded: angiostatic effect

SMILES: CC#C[C@]1(O)CC[C@H]2[C@@H]3CCC4=CC(=O)CCC4=C3[C@@H](c3ccc(N(C)C)cc3)C[C@@]21C [RU38486]
effect on the angiostatic effect of corticosterone (mouse aortic rings [1]; wild type rings): prevented
direct effect on angiogenesis in aortic rings (drug alone) (mouse aortic rings [1]; wild type rings): did not affect; also recorded: no effect
effect on the angiostatic effect of 11-dehydrocorticosterone (mouse aortic rings [2]): prevented
new vessel formation in RU38486 impregnated sponges versus contralateral controls ([3]; wild type C57B16 mice, 5 mg in silastic insert): increased; also recorded: greater

SMILES: CC1(C)[C@@H](OC(=O)CCC(=O)O)CC[C@]2(C)[C@H]3C(=O)C=C4[C@@H]5C[C@@](C)(C(=O)O)CC[C@]5(C)CC[C@@]4(C)[C@]3(C)CC[C@@H]12 [carbenoxolone]
effect on angiogenesis in aortic rings at high concentration (mouse aortic rings [1]; wild type rings, 10^−4 M): abolished angiogenesis
effect on the angiostatic effect of corticosterone (mouse aortic rings [1]; wild type rings): did not potentiate; also recorded: did not influence
effect on the angiostatic effect of corticosterone (mouse aortic rings [1]; [6]): no effect
direct effect on angiogenesis in aortic rings (drug alone) (mouse aortic rings [1]; wild type rings): no direct effect
direct effect on angiogenesis in aortic rings (drug alone) (mouse aortic rings [1]; [6]): no effect
effect on the angiostatic effect of 11-dehydrocorticosterone (mouse aortic rings [2]): prevented

SMILES: C[C@]12C[C@H](O)[C@H]3[C@@H](CCC4=CC(=O)CC[C@@]43C)[C@@H]1CC[C@@H]2C(=O)CO [corticosterone]
effect of glucocorticoid on angiogenesis in aortic rings (mouse aortic rings [1]; [4]): inhibited to a similar degree; also recorded: not different between strains
effect of glucocorticoid on angiogenesis in aortic rings (mouse aortic rings [1]; [5]): inhibited angiogenesis

concentration at 20 days (in vivo; 11bHSD-1 −/−, contralateral placebo treated sponge): 135 ± 46 ng/g
concentration at 20 days (in vivo; 11bHSD-1 −/−, ipsilateral steroid treated sponge): 3780 ± 1700 ng/g
sponge cortisol concentrations, in words (in vivo): similar
concentration at 20 days (in vivo; wild type, contralateral placebo treated sponge): 161 ± 18 ng/g
concentration at 20 days (in vivo; wild type, ipsilateral steroid treated sponge): 4270 ± 186 ng/g
SMILES: C[C@]12CCC(=O)C=C1CC[C@@H]1[C@@H]2[C@@H](O)C[C@@]2(C)[C@H]1CC[C@]2(O)C(=O)CO [cortisol]
effect of steroid-impregnated sponge on angiogenesis in vivo ([3]; 11βHSD-1 −/− mice): inhibited angiogenesis to a similar degree
effect of steroid-impregnated sponge on angiogenesis in vivo ([3]; 11βHSD-1 −/− mice, listed as Cortisol): inhibited angiogenesis
effect of steroid-impregnated sponge on angiogenesis in vivo ([3]; wild type C57B16 mice): inhibited angiogenesis

sponge cortisol concentrations after impregnation with cortisone compared with cortisol, in words (in vivo): lower
sponge cortisol concentrations, in words (in vivo): did not elevate
SMILES: C[C@]12CCC(=O)C=C1CC[C@@H]1[C@@H]2C(=O)C[C@@]2(C)[C@H]1CC[C@]2(O)C(=O)CO [cortisone]
effect of steroid-impregnated sponge on angiogenesis in vivo ([3]; 11βHSD-1 −/− mice): did not inhibit angiogenesis; also recorded: only in wild type mice
effect of steroid-impregnated sponge on angiogenesis in vivo ([3]; wild type C57B16 mice): inhibited angiogenesis

SMILES: CC(=O)S[C@@H]1CC2=CC(=O)CC[C@]2(C)[C@H]2CC[C@@]3(C)[C@@H](CC[C@@]34CCC(=O)O4)[C@H]12 [spironolactone]
effect on the angiostatic effect of corticosterone (mouse aortic rings [1]; wild type rings): no effect
direct effect on angiogenesis in aortic rings (drug alone) (mouse aortic rings [1]; wild type rings): no effect
effect on the angiostatic effect of 11-dehydrocorticosterone (mouse aortic rings [2]): no effect
